{"source": "patent US6440391B1", "about": "“Management of snoring by oral administration of dimethyl sulfone” (Elstan Corporation, priority 2000, dated 2002)", "key": {"snoring [1]": {"system": "snoring", "assay": "Oral spray of methylsulfonylmethane solution onto the oropharynx before sleep; snoring observed by subject's mate", "assay_type": "in vivo, human", "set-up": "key to Results (relief of snoring): FR = Full Relief; MR = Moderate Relief; NR = No Relief", "details": "for Results (relief of snoring): one line per subject", "experimental": "The initial experiments to determine effectiveness of the instillation of methylsulfonylmethane as a snoring reduction agent was carried out with an initial sampling of 10 individuals.\nIn each of the above cases, the subject was instructed to spray the solution containing the methylsulfonylmethane four (4) times into the oropharynx approximately fifteen (15) minutes to thirty (30) minutes prior to retiring for sleep. Each spray contained about 0.2 ml; to 0.25 ml of the solution. Thus, the total amount instilled is about 0.8 ml to […]. The observation of the presence or absence of snoring was made by the subject's mate. The observing party was not told that the subject was employing […] methylsulfonylmethane. As noted in Table I, 70% of the subject's mates reported the lessening or absence of snoring while 30% reported no benefit from the oral administration of the methylsulfonylmethane.\nThe seven patients who reported full relief or moderate relief where thereafter provided with a saline spray as a placebo without their knowledge. In each case the snoring returned. They were again given the methylsulfonylmethane spray and 70% again achieve full relief.\nA second sampling of subjects was undertaken wherein the weight percentage of methylsulfonylmethane in water was varied at 1%, 5% and 10%.\nBy warming the solution of water and methylsulfonylmethane to no more than about 37° C. (98.6° F.), a greater concentration of methylsulfonylmethane will go into solution."}, "snoring [2]": {"system": "snoring", "details": "cited from earlier work"}, "[3]": {"details": "15% MSM, oral spray, 10 individuals (Table I)"}}, "note": "Values joined by “and” are separate entries in the source; they are usually repeats but may differ in a detail not shown here. Identical values can stand only once."}
{"molecule": "CS(C)(=O)=O", "note": "[MSM, methylsulfonylmethane]", "values": [{"measurement": "Results (relief of snoring)", "setting": "snoring [1]; 1% MSM by weight in water, oral", "result": "FR and NR (3×)"}, {"measurement": "relief of snoring at lowest concentration", "setting": "snoring [1]; 1% by weight in water, oral, Table II", "result": "the relief was not reported to be as dramatic as at higher concentrations"}, {"measurement": "effectiveness of concentration range against snoring", "setting": "snoring [1]; 1%-20% by weight in water, oral, Tables I-III", "result": "effective"}, {"measurement": "Results (relief of snoring)", "setting": "snoring [1]; 5% MSM by weight in water, oral", "result": "NR (2×) and FR (2×)"}, {"measurement": "Results (relief of snoring)", "setting": "snoring [1]; 10% MSM by weight in water, oral", "result": "FR (3×) and NR"}, {"measurement": "Results (relief of snoring)", "setting": "snoring [1]; 15% MSM by weight, oral spray 4 times (0.8-1.2 ml) 15-30 min before sleep", "result": "FR (6×) and NR (3×) and MR"}, {"measurement": "subject's mates reporting lessening or absence of snoring", "setting": "snoring [1]; [3]", "result": 70, "unit": "%"}, {"measurement": "subject's mates reporting no benefit", "setting": "snoring [1]; [3]", "result": 30, "unit": "%"}, {"measurement": "Results (relief of snoring)", "setting": "snoring [1]; 20% MSM by weight in water, solution warmed to no more than about 37° C., oral", "result": "FR"}, {"measurement": "patients again achieving full relief when given the spray again", "setting": "snoring [1]; the seven responders, re-given MSM spray after saline placebo (snoring returned on placebo)", "result": 70, "unit": "%"}, {"measurement": "effectiveness of intranasal treatment", "setting": "snoring [2]; 1% to 20% by weight, drops into the nasal cavity", "result": "highly effective"}, {"measurement": "time interval of reduced snoring", "setting": "snoring [2]; nasal administration saturating mucous membranes of the nasal passageways", "result": "8 to 12", "unit": "h"}, {"measurement": "local tolerability on nasal instillation", "setting": "snoring [2]; nasal route, some individuals", "result": "slight burning sensation"}]}
